We go through 25 compounds from patent US20260049084A1, “ENPP1 MODULATORS AND PRODUCTS AND USES THEREOF” (Gossamer Bio Services, Inc., priority 2022, published 2026).

Test [1] concerns the target Recombinant human ENPP3 protein (Homo sapiens (Human), UniProt O14638). Nature of the test: ENPP3 cGAMP Biochemical Assay. The conditions noted are these: 70.5 nM ENPP3, 120 μM 2′3′-cGAMP substrate, TR-FRET. The protocol:
ENPP3 cGAMP Biochemical Assay
Compounds were added to 384 well Proxiplate (PerkinElmer, Waltham MA) at 100 nl/well from DMSO stocks using Echo (Labcyte, San Jose CA). Recombinant human ENPP3 protein (Acro Biosystems, Newwark DE) was prepared in assay buffer (50 mM Tris pH7.5, 1 mM TCEP pH7.0, 2 mM MgCl2, 2 mM CaCl2), 2 mM ZnCl2 and 0.005% Tween20) and added at 2 μl/well. The plate was sealed, centrifuged at 1000 rpm for 1 minute and incubated at room temperature for 30 minutes before 2 μl substrate 2′3′-cGAMP (R&D Systems, Minneapolis MN) in assay buffer was added to each well to a final concentration of 70.5 nM ENPP3 and 120 μM 2′3′-cGAMP. The plate was sealed and centrifuged at 1000 rpm for 1 minute again. After incubation at 25° C. for 60 minutes, Terbium labelled AMP/GMP antibody and AMP/GMP HiLyte647 Tracer (BellBrook Labs, Fitchburg WI) in detection buffer (50 mM Tris pH7.5, 20 mM EDTA and 0.1% Prionex) were added to the reaction mixture to a final concentration of 475 nM and 3 nM respectively. The assay plate was incubated at room temperature for 120 minutes. TR-FRET signal was detected using Envision (PerkinElmer, Waltham MA).

In test [2] the target is Recombinant human ENPP1 protein (Homo sapiens (Human), UniProt P22413). Nature of the test: ENPP1 cGAMP Biochemical Assay. The conditions noted are these: 0.5 nM ENPP1, 1000 nM 2′3′-cGAMP substrate, TR-FRET. The protocol: ENPP1 cGAMP Biochemical Assay
Compounds were added to 384 well Proxiplate (PerkinElmer, Waltham MA) at 100 nl/well from DMSO stocks using Echo (Labcyte, San Jose CA). Recombinant human ENPP1 protein (R&D Systems, Minneapolis MN) was prepared in assay buffer (50 mM Tris pH7.5, 1 mM TCEP pH7.0, 2 mM MgCl2 and 0.005% Tween20) and added at 10 μl/well. The plate was sealed, centrifuged at 1000 rpm for 1 minute and incubated at room temperature for 30 minutes before 5 μl substrate 2′3′-cGAMP (R&D Systems, Minneapolis MN) in assay buffer was added to each well to a final concentration of 0.5 nM ENPP1 and 1000 nM 2′3′-cGAMP. The plate was sealed and centrifuged at 1000 rpm for 1 minute again. After incubation at 25° C. for 60 minutes, Terbium labelled AMP/GMP antibody and AMP/GMP HiLyte647 Tracer (BellBrook Labs, Fitchburg WI) in detection buffer (50 mM Tris pH7.5, 20 mM EDTA and 0.1% Prionex) were added to the reaction mixture to a final concentration of 2 nM (5 μl/well). The assay plate was incubated at room temperature for 120 minutes. TR-FRET signal was detected using Envision (PerkinElmer, Waltham MA).

Recombinant human ENPP3 protein, sequence (O14638 whole entry): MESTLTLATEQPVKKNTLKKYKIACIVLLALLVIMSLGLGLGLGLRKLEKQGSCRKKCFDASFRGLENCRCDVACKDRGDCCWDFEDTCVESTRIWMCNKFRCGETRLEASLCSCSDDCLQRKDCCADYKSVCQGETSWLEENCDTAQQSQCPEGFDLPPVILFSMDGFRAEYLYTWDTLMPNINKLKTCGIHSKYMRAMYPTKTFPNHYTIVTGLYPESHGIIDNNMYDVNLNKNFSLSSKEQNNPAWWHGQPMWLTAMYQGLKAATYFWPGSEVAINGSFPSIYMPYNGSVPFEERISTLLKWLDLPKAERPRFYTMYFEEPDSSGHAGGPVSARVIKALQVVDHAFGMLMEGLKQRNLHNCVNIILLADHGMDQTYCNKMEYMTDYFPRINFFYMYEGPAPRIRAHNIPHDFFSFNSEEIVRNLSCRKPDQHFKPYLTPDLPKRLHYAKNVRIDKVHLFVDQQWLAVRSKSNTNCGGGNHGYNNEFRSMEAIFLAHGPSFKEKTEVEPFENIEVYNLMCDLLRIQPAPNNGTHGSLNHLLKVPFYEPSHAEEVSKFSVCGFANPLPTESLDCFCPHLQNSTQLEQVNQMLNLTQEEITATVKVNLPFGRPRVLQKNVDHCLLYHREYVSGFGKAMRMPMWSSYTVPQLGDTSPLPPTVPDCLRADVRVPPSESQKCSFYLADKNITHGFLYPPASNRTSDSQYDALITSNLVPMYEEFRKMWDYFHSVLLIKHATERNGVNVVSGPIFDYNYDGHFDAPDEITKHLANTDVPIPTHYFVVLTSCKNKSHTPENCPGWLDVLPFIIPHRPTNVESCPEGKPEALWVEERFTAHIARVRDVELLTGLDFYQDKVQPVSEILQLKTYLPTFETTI
Recombinant human ENPP1 protein, sequence (P22413 whole entry): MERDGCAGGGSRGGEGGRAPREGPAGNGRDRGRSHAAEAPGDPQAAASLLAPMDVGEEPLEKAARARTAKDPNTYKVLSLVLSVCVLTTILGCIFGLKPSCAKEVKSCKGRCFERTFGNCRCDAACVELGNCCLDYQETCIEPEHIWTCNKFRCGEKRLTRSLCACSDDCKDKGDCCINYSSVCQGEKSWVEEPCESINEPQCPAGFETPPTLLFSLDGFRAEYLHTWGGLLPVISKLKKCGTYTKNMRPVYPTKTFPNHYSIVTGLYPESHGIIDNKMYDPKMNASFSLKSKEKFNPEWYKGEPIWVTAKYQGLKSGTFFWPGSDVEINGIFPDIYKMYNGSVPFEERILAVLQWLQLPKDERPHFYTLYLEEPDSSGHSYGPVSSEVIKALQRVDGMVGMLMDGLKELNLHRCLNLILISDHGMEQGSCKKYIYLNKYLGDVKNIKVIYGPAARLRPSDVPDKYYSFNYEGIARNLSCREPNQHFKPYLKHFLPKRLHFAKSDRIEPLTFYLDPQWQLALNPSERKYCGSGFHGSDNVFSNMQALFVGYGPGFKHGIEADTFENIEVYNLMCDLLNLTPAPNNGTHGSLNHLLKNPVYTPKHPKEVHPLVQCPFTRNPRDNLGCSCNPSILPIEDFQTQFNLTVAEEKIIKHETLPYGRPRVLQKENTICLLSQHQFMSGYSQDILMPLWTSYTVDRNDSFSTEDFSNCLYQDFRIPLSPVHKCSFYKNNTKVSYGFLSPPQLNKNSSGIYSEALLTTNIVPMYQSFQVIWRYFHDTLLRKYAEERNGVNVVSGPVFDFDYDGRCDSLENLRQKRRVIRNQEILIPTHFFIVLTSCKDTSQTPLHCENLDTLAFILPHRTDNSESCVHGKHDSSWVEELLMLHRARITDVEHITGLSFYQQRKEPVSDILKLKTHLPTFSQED

For the compound `CCn1ncc2c(NCc3ccc([S@](N)(=O)=NC)cc3)ccnc21` [Compound 3F, (R)-4-(((1-ethyl-1H-pyrazolo[3,4-b]pyridin-4-yl)amino)methyl)-N′-methylbenzenesulfonimidamide], the IC50 in test [1] was not below 1000 nM; in test [2], 100 to 1000 nM.

Regarding `CN[S@@](=N)(=O)c1ccc(CNc2ccnc3c2c(Cl)nn3CC#N)cc1` [Compound 10F, (R)-4-(((3-chloro-1-(cyanomethyl)-1H-pyrazolo[3,4-b]pyridin-4-yl)amino)methyl)-N-methylbenzenesulfonimidamide], the concentration for half-maximal inhibition (IC50) was not below 1000 nM in test [1] and 10 to 100 nM in test [2].

For the compound `CCn1nc(Cl)c2c(Nc3ccc(S(N)(=O)=NC)cc3)ccnc21` (centres unmarked) [Compound 5D, 4-((3-chloro-1-ethyl-1H-pyrazolo[3,4-b]pyridin-4-yl)amino)-N′-methylbenzenesulfonimidamide], the IC50 is 100 to 1000 nM in test [1] and less than 10 nM in test [2].

Regarding `CN=S(C)(=O)c1ccc(CNc2ccnc3c2c(Cl)nn3CC#N)cc1` (centres unmarked) [Compound 10D, 2-(3-chloro-4-((4-(N,S-dimethylsulfonimidoyl)benzyl)amino)-1H-pyrazolo[3,4-b]pyridin-1-yl)acetonitrile], the IC50 in test [1] is not below 1000 nM; in test [2], 100 to 1000 nM.

On to `C#CCn1nc(Cl)c2c(NCc3ccc([S@@](C)(=N)=O)cc3)ccnc21` [Compound 6B, (S)-(4-(((3-chloro-1-(prop-2-yn-1-yl)-1H-pyrazolo[3,4-b]pyridin-4-yl)amino)methyl)phenyl)(imino)(methyl)-λ^6-sulfanone], for which the IC50 in test [1] is 10 to 100 nM; in test [2], less than 10 nM.

`CCn1nc(Cl)c2c(NCc3ccc([S@](C)(=N)=O)cc3)ccnc21` [Compound 9L, (R)-(4-(((3-chloro-1-ethyl-1H-pyrazolo[3,4-b]pyridin-4-yl)amino)methyl)phenyl)(imino) (methyl)-λ^6-sulfanone]: the 50% inhibitory concentration (IC50) in test [1] is 100 to 1000 nM; in test [2] it was less than 10 nM.

As for `C#CCn1nc(Cl)c2c(NCc3ccc(S(=N)(=O)NC)cc3)ccnc21` (stereo in doubt) [Compound 10B, (R)-4-(((3-chloro-1-(prop-2-yn-1-yl)-1H-pyrazolo[3,4-b]pyridin-4-yl)amino)methyl)-N-methylbenzenesulfonimidamide], the figures for the IC50 in test [1] and in test [2] were not below 1000 nM and less than 10 nM, respectively.

As to `C[S@](=N)(=O)c1ccc(CNc2ccnc3c2c(Cl)nn3CC#N)cc1` [Compound 9G, (S)-2-(3-chloro-4-((4-(S-methylsulfonimidoyl)benzyl)amino)-1H-pyrazolo[3,4-b]pyridin-1-yl) acetonitrile], the IC50 in test [1] is not below 1000 nM; in test [2] it was 100 to 1000 nM.

Turning to `CCn1nc(Cl)c2c(NCc3ccc([S@@](N)(=O)=NC)cc3)ccnc21` [Compound 12C, (S)-4-(((3-chloro-1-ethyl-1H-pyrazolo[3,4-b]pyridin-4-yl)amino)methyl)-N′-methyl benzenesulfonimidamide], the values for the IC50 in test [1] and in test [2] were not below 1000 nM and 10 to 100 nM, respectively.

On to `C#CCn1nc(Cl)c2c(NCc3c(F)cc(S(N)(=O)=NC)cc3F)ccnc21` (centres unmarked) [Compound 3B, 4-(((3-chloro-1-(prop-2-yn-1-yl)-1H-pyrazolo[3,4-b]pyridin-4-yl)amino)methyl)-3,5-difluoro-N-methylbenzenesulfonimidamide], for which the half-inhibitory concentration (IC50) in test [1] is 100 to 1000 nM; in test [2] it was less than 10 nM.

For `C#CCn1nc(Cl)c2c(NCc3ccc(S(=N)(=O)NC)cc3)ccnc21` (stereo in doubt) [Compound 10C, (S)-4-(((3-chloro-1-(prop-2-yn-1-yl)-1H-pyrazolo[3,4-b]pyridin-4-yl)amino)methyl)-N-methylbenzenesulfonimidamide], the concentration for half-maximal inhibition (IC50) is 10 to 100 nM in test [1] and less than 10 nM in test [2].

Regarding `C#CCn1nc(Cl)c2c(NCc3ccc(S(=N)(N)=O)cc3)ccnc21` (centres unmarked) [Compound 11A, 4-(((3-chloro-1-(prop-2-yn-1-yl)-1H-pyrazolo[3,4-b]pyridin-4-yl)amino)methyl)benzenesulfonimidamide], the IC50 in test [1] was 10 to 100 nM; in test [2] it was less than 10 nM.

Take `C#CCn1nc(Cl)c2c(NCc3ccc(S(N)(=O)=NC)cc3)ccnc21` (centres unmarked) [Compound 12A, 4-(((3-chloro-1-(prop-2-yn-1-yl)-1H-pyrazolo[3,4-b]pyridin-4-yl)amino)methyl)-N′-methylbenzenesulfonimidamide]: the concentration for half-maximal inhibition (IC50) in test [1] is 10 to 100 nM; in test [2], less than 10 nM.

On to `CCn1nc(Cl)c2c(NCC3CCN([S@@](=N)(=O)CCOC)CC3)ccnc21` [Compound 14C, (R)-3-chloro-1-ethyl-N-((1-(2-methoxyethylsulfonimidoyl)piperidin-4-yl)methyl)-1H-pyrazolo[3,4-b]pyridin-4-amine], for which the half-inhibitory concentration (IC50) in test [1] is not below 1000 nM; in test [2], 10 to 100 nM.

Regarding `C#CCn1nc(Cl)c2c(NCC3CCN(S(C)(=N)=O)CC3)ccnc21` (centres unmarked) [Compound 13A, 3-chloro-N-((1-(S-methylsulfonimidoyl)piperidin-4-yl)methyl)-1-(prop-2-yn-1-yl)-1H-pyrazolo[3,4-b]pyridin-4-amine], the IC50 is 10 to 100 nM in test [1] and less than 10 nM in test [2].

Turning to `CCn1nc(Cl)c2c(NCc3ccc(S(N)(=O)=NCC(F)(F)F)cc3)ccnc21` (centres unmarked) [Compound 12E, 4-(((3-chloro-1-ethyl-1H-pyrazolo[3,4-b]pyridin-4-yl)amino)methyl)-N′-(2,2,2-trifluoroethyl) benzenesulfonimidamide], the IC50 was not below 1000 nM in test [1] and 10 to 100 nM in test [2].

For `CCn1nc(Cl)c2c(Nc3ccc(S(N)(=O)=NC(C)C)cc3)ccnc21` (centres unmarked) [Compound 5H, 4-((3-chloro-1-ethyl-1H-pyrazolo[3,4-b]pyridin-4-yl)amino)-N′-isopropylbenzenesulfonimidamide], the IC50 in test [1] is 100 to 1000 nM; in test [2], less than 10 nM.

`CCn1nc(Cl)c2c(NCC3CCN([S@](C)(=N)=O)CC3)ccnc21` [Compound 13H, (S)-3-chloro-1-ethyl-N-((1-(S-methylsulfonimidoyl)piperidin-4-yl)methyl)-1H-pyrazolo[3,4-b]pyridin-4-amine]: the IC50 in test [1] was not below 1000 nM; in test [2] it was 10 to 100 nM.

In the case of `C#CCn1nc(Cl)c2c(NCc3ccc([S@](C)(=N)=O)cc3)ccnc21` [Compound 6A, (R)-(4-(((3-chloro-1-(prop-2-yn-1-yl)-1H-pyrazolo[3,4-b]pyridin-4-yl)amino)methyl)phenyl)(imino)(methyl)-λ^6-sulfanone], the half-inhibitory concentration (IC50) in test [1] is not below 1000 nM; in test [2], 10 to 100 nM.

Consider `CCn1ncc2c(NCC3CCN([S@](C)(=N)=O)CC3)ccnc21` [Compound 14H, (S)-1-ethyl-N-((1-(S-methylsulfonimidoyl)piperidin-4-yl)methyl)-1H-pyrazolo[3,4-b]pyridin-4-amine], for which, in test [1], the IC50 was not below 1000 nM.

Turning to `CN=[S@](N)(=O)N1CCC(CNc2ccnc3c2c(Cl)nn3CC#N)CC1` [Compound 15G, (S)-4-(((3-chloro-1-(cyanomethyl)-1H-pyrazolo[3,4-b]pyridin-4-yl)amino)methyl)-N′-methylpiperidine-1-sulfonimidamide], the IC50 in test [1] is 100 to 1000 nM.

Regarding `CCn1ncc2c(NCc3ccc([S@@](N)(=O)=NC)cc3)ccnc21` [Compound 3E, (S)-4-(((1-ethyl-1H-pyrazolo[3,4-b]pyridin-4-yl)amino)methyl)-N′-methylbenzenesulfonimidamide], the concentration for half-maximal inhibition (IC50) in test [1] is not below 1000 nM; in test [2], less than 10 nM.

As for `CCn1ncc2c(NCc3ccc(S(N)(=O)=NC#N)cc3)ccnc21` (centres unmarked) [Compound 3D, N′-cyano-4-(((1-ethyl-1H-pyrazolo[3,4-b]pyridin-4-yl)amino)methyl)benzenesulfonimidamide], the figures for the IC50 in test [1] and in test [2] were 100 to 1000 nM and less than 10 nM, respectively.

Take `CCn1nc(Cl)c2c(NCC3CCN(S(=N)(=O)CCOC)CC3)ccnc21` (centres unmarked) [Compound 14B, 3-chloro-1-ethyl-N-((1-(2-methoxyethylsulfonimidoyl)piperidin-4-yl)methyl)-1H-pyrazolo[3,4-b]pyridin-4-amine]: the IC50 in test [1] was not below 1000 nM; in test [2], 10 to 100 nM.

`CCn1ncc2c(NCC3CCN([S@@](C)(=N)=O)CC3)ccnc21` [Compound 14G, (R)-1-ethyl-N-((1-(S-methylsulfonimidoyl)piperidin-4-yl)methyl)-1H-pyrazolo[3,4-b]pyridine-4-amine]: in test [1], the IC50 was not below 1000 nM.
